Test results: patent publication US20080102082A1, “Formulation for Oral Administration Having a Health-Promoting Effect on the Cardiovascular System” (ROTTAPHARM S.p.A., priority 2004, published 2008)
Read-outs that look alike come from different tables or passages of the source.

Key:
[1] = NOAEL, repeated daily doses in the animal; type: in vivo; settings: extrapolated from the animal NOAEL
Experimental: In man the NOAEL is 6 mg.

[2] = doses repeated daily in the animal; cited from earlier work
[3] = in man; cited from earlier work
[4] = biological target: T1, HMG-CoA reductase (HMG-CoA-r) (Homo sapiens, UniProt P04035); settings: competitive enzymatic inhibition; cited from earlier work
T1 sequence (P04035 1-888): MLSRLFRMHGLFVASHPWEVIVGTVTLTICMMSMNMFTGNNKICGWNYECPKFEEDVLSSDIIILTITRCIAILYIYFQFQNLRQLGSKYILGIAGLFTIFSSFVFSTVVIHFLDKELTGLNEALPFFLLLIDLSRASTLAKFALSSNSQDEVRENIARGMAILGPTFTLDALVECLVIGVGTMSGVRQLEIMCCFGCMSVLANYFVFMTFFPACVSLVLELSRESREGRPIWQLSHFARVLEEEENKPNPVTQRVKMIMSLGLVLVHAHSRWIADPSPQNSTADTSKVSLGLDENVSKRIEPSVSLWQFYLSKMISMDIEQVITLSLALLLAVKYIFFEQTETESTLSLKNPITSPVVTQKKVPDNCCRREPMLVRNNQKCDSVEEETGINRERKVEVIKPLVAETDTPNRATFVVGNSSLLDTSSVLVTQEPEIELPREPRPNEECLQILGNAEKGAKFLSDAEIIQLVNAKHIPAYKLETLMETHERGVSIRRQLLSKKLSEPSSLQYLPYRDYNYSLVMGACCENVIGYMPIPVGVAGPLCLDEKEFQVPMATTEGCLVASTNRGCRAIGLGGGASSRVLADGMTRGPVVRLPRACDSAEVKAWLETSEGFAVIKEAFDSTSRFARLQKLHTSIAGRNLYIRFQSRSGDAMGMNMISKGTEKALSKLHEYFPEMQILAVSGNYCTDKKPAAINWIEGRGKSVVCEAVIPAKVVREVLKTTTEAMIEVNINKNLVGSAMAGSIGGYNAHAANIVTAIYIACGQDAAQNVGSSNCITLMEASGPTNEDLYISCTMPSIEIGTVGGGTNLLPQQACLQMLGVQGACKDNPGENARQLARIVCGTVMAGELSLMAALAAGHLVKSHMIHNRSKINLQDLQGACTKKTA

| Structure (SMILES) | NOAEL of the animal, corresponding amount in man [1] | NOAEL (no observed adverse effect level) [2] [mg/kg] | NOAEL (no observed adverse effect level) [3] [mg] | activity for the enzyme relative to the natural substrate HMG-CoA [4] [times] |
| --- | --- | --- | --- | --- |
| CC1=C(/C=C/C(C)=C/C=C/C(C)=C/C=C/C=C(C)/C=C/C=C(C)/C=C/C2=C(C)C(=O)[C@@H](O)CC2(C)C)C(C)(C)C[C@H](O)C1=O [AX, 3,3′-dihydroxy-β,β′-carotene-4,4′-dione] | more than 80 g | 1340 | 6 | – |
| CC[C@H](C)C(=O)O[C@H]1C[C@@H](C)C=C2C=C[C@H](C)[C@H](CC[C@@H]3C[C@@H](O)CC(=O)O3)[C@H]21 [Monacolin K] | – | – | – | 2000 |
